Source: PMC12209146 (Cellular and Molecular Life Sciences: CMLS, 2025)
Where two headings read alike, the source gives them in different places. No end group written: not given here.

Tests used:
TcdB [1] = target: T1, TcdB (Clostridioides difficile, UniProt P18177); conditions: 100 µM peptide, 200 pM TcdB, added simultaneously, FCS-free medium, 7 h, 37 °C; n = 9
Target sequence in this assay (P18177 2-2366 limits assumed): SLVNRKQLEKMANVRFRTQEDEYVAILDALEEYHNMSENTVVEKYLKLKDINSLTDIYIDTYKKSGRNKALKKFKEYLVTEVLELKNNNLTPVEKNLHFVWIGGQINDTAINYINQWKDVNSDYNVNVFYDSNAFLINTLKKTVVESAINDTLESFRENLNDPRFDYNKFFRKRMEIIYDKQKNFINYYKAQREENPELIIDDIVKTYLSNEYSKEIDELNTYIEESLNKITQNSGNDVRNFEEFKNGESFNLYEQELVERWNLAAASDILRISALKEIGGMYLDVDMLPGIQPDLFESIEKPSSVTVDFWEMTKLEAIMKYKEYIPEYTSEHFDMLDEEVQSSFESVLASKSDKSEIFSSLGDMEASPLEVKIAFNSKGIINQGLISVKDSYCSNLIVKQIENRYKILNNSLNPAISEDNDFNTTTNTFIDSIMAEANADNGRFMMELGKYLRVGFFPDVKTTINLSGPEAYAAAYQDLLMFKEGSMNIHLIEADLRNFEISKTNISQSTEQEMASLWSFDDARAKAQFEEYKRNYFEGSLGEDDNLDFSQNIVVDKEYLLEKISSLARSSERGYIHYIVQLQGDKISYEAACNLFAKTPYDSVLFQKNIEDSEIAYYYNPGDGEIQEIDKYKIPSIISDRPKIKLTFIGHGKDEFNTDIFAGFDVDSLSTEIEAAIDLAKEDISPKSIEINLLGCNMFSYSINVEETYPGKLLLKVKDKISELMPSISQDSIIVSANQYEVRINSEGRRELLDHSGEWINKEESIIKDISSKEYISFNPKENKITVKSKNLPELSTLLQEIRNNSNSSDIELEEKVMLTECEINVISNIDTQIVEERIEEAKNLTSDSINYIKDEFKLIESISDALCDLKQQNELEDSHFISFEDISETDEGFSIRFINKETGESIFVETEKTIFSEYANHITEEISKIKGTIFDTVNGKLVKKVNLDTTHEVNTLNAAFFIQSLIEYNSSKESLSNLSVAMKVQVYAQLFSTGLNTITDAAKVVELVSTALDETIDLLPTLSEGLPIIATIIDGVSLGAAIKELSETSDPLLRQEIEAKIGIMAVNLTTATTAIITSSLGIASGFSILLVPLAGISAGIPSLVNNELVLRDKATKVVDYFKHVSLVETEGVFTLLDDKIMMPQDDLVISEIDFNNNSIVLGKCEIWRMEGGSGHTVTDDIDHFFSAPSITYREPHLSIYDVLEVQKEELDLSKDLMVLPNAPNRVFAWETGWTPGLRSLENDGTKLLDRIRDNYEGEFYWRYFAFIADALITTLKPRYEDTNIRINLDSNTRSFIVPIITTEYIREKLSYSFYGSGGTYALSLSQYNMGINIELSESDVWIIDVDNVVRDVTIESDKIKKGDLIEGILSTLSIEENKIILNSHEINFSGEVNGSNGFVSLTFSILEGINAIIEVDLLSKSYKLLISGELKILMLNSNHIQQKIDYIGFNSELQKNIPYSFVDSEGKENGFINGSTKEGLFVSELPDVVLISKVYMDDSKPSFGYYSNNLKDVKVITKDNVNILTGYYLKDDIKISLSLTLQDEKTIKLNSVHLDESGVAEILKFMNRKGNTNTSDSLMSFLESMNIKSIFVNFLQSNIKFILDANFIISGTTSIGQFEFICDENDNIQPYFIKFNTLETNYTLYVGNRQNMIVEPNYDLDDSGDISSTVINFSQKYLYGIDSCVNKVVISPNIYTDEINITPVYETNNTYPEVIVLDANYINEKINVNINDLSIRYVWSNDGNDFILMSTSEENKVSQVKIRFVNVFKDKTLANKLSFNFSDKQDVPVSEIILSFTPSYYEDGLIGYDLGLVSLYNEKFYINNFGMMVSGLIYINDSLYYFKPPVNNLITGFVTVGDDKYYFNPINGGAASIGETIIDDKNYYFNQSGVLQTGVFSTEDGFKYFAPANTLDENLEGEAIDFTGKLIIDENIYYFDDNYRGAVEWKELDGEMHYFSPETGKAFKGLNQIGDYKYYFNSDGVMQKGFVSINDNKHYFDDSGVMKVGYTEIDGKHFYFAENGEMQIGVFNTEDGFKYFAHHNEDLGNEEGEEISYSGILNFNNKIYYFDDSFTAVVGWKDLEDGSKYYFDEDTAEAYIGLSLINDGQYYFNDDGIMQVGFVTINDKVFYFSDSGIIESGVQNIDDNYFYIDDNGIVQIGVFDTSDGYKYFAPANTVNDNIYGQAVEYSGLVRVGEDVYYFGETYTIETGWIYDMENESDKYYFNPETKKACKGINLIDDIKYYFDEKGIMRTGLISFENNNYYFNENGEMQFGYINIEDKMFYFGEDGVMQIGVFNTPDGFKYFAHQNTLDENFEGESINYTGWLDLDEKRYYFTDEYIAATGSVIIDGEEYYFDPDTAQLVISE

C. difficile = conditions: previously shown; cited from earlier work
Procedure: Here, initially higher concentrations of the Angie peptides were tested and inhibition zones around the Angie peptides and the positive control were measured (Supplementary Fig. 1).

zebrafish embryos = conditions: in vivo; cited from earlier work
TcdB [2] = target: T1, TcdB; conditions: Angie peptides 100 µM, α-defensin-6 6 µM, TcdB 50 ng in 25 µl PBS, 30 min, 37 °C, supernatant/pellet immunoblot; n = 3-4
Procedure: For the precipitation analysis, TcdB (50 ng equals 2 ng/µl) and inhibitors, α-defensin-6 (6 µM) and Angie peptides or water (solvent control) were incubated for 30 min in a total volume of 25 µl PBS. Next, the samples were centrifuged for 20 min, 14,000 rpm at 4 °C for separation of supernatant and pellet fraction. […] TcdB was detected using an anti-TcdB antibody (1:1000, Anti-Clostridium difficile Toxin B antibody, Abcam, Cambridge, UK).

TcdB [3] = target: T1, TcdB; test: cell-based
Target sequence in this assay (P18177 2-2366 limits assumed): as above

in vitro = in vitro ADME, human; conditions: 37 °C
Procedure: The half-life of Angie 5 in plasma was calculated according to a work by Freisem et al., with minor modifications. A sample (0.5 ml) of human plasma was spiked with 20 µM Angie 5 and incubated at 37 °C. Aliquots (50 µl) were separated at 0, 15, 30, 60, and 120 min, respectively, and mixed with 250 µl 0.1% TFA in acetonitrile at − 20 °C. The mixture was centrifuged at 13,000 rpm for 30 s, and 150 µl of the supernatant was mixed with 150 µl 20% acetic acid in ice. The samples were analyzed with an Axima Confidence MALDI-TOF MS (Shimadzu) in linear mode using exactly the same measurement conditions for all samples spotted on a 384-well plate. Wells were coated with 0.5 µl of 10 mg/ml CHCA previously dissolved in TFA/water/acetonitrile/2-propanol (2.5/47.5/25/25, v/v), and the solvent was allowed to evaporate. Then, each sample (0.5 µl), previously mixed with matrix (0.5 µl), was applied onto the dry pre-coated well, and the solvent was allowed to evaporate. Laser shots were automatically done following a regular circular raster of a diameter of 2000 μm and spacing of 200 μm on each well; 100 profiles were acquired per sample, and 20 shots were accumulated per profile. An accelerating voltage of 20 kV was applied to the ion source. […] The half-life was calculated using GraphPad Prism version 10.3.1 for Windows, GraphPad Software, Boston, Massachusetts USA, www.graphpad.com. […]

## KDINTFIHGNKRSIKAI [reference Angie]
TcdB [1]
  Protection from TcdB-mediated cell rounding, CaCo-2 cells: did not inhibit

## KGINTFIHGNKRSIKAI [Angie 6]
TcdB [1]
  Protection from TcdB-mediated cell rounding, CaCo-2 cells: did not inhibit

## LL-37: antimicrobial peptide used as positive control in the radial diffusion assay (Anaspec) (LLGDFFRKSKEKIGKEFKRIVQRIKDFLRNLVPRTES; Antibacterial peptide LL-37; UniProt P49913 134-170, looked up)
C. difficile
  Activity against C. difficile: activity against C. difficile

## KAINTFIHGNKISIKAI [Angie 1]
Zebrafish embryos
  Toxicity for zebrafish embryos: not toxic

## KLINTFIHGNKRSIKAI [Angie 7]
TcdB [1]
  Protection from TcdB-mediated cell rounding, CaCo-2 cells: did not inhibit

## α-defensin-6: human peptide, positive control for precipitation of TcdB (PeptaNova)
TcdB [2]
  Precipitate formation with TcdB: precipitate formation

## KFINIFIHGNKRSIKAI [Angie 5]
TcdB [3]
  IC50: 46.3 µM
TcdB [3]; IC50 of TcdB-mediated cell rounding, Vero cells, 10 pM TcdB, no preincubation, 3 h after addition, FCS-free medium, ± SEM 1.08 µM, four-parameter fit
  IC50: 40.9 µM
TcdB [1]
  Protection from TcdB-mediated cell rounding, CaCo-2 cells: protected
In vitro; fit of signal area vs. time, human plasma, 20 µM, MALDI-TOF
  K of one-phase decay curve in human plasma: 0.1274
In vitro; human plasma spiked with 20 µM, aliquots at 0, 15, 30, 60, 120 min, 0.1% TFA in acetonitrile, MALDI-TOF MS peak area, one-phase decay fit, n = 3 per time point
  half-life at 20 µM: 5.44 min
